Among the data in US20240150356A1, “Pyrimidine amide compounds and use thereof” (ALPHALA CO., LTD., priority 2019, published 2024) are LC50 values, retold here.

As usually defined, the LC50 is the concentration that kills 50% of the test population.

The first assay deals with Hep3B cells (hepatocellular carcinoma cell line). Nature of the assay: In vitro MTS cell viability assay (NCI-60 methodology), Hep3B. The following applies: Homo sapiens, 48 h, Table 5, MTS, 2 days drug incubation, 50% reduction vs time zero, read-out: Hep3B LC50. The format is cell-based. In outline:
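Hep3B cells given five 2-fold dilutions of compound for 2 days, with viability by MTS measured at time zero and at end. LC50 is the concentration giving a 50% fall in viable cells relative to the start of treatment, per NCI-60 formula.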
For `O=C(Nc1nc(-c2cc(C(F)(F)F)ccc2F)nc2c1cnn2-c1ccccc1)c1ccc([N+](=O)[O-])s1` [Compound 5-50, N-(6-(2-fluoro-5-(trifluoromethyl)phenyl)-1-phenyl-1H-pyrazolo[3,4-d]pyrimidin-4-yl)-5-nitrothiophene-2-carboxamide], the LC50 was determined as 0.35 µM.
The same measure, in the same setting: in the case of `O=C(Nc1nc(-c2ccc(C(F)(F)F)cc2F)nc2c1cnn2-c1ccccc1)c1ccc([N+](=O)[O-])s1` [Compound 5-51, N-(6-(2-fluoro-4-(trifluoromethyl)phenyl)-1-phenyl-1H-pyrazolo[3,4-d]pyrimidin-4-yl)-5-nitrothiophene-2-carboxamide] it was 0.37 µM.
Same read-out and setting: for `O=C(Nc1nc(-c2ccc(C(F)(F)F)c(F)c2)nc2c1cnn2-c1ccccc1)c1ccc([N+](=O)[O-])s1` [Compound 5-52, N-(6-(3-fluoro-4-(trifluoromethyl)phenyl)-1-phenyl-1H-pyrazolo[3,4-d]pyrimidin-4-yl)-5-nitrothiophene-2-carboxamide] the value was over 1.25 µM; for `O=C(Nc1nc(-c2cc(F)c(F)c(F)c2)nc2c1cnn2-c1ccccc1)c1ccc([N+](=O)[O-])s1` [Compound 5-53, 5-nitro-N-(1-phenyl-6-(3,4,5-trifluorophenyl)-1H-pyrazolo[3,4-d]pyrimidin-4-yl)thiophene-2-carboxamide], over 1.25 µM; for `COCCOc1ccc(-c2nc(NC(=O)c3ccc([N+](=O)[O-])s3)c3cnn(-c4ccccc4)c3n2)cn1` [Compound 5-54, N-(6-(6(2-methoxyethoxy)pyridin-3-yl)-1-phenyl-1H-pyrazolo[3,4-d]pyrimidin-4-yl)-5-nitrothiophene-2-carboxamide], 0.34 µM.
Still for that read-out and setting: for `CCOCCOc1ccc(-c2nc(NC(=O)c3ccc([N+](=O)[O-])s3)c3cnn(-c4ccccc4)c3n2)cn1` [Compound 5-55, N-(6-(6-(2-ethoxyethoxy)pyridin-3-yl)-1-phenyl-1H-pyrazolo[3,4-d]pyrimidin-4-yl)-5-nitrothiophene-2-carboxamide] the value was 0.49 µM.
With `CCOCCOCCOc1ccc(-c2nc(NC(=O)c3ccc([N+](=O)[O-])s3)c3cnn(-c4ccccc4)c3n2)cn1` [Compound 5-57, N-(6-(6-(2-(2-ethoxyethoxy)ethoxy)pyridin-3-yl)-1-phenyl-1H-pyrazolo[3,4-d]pyrimidin-4-yl)-5-nitrothiophene-2-carboxamide], the LC50 amounted to 0.79 µM.

Still in this assay, the particulars now being: Homo sapiens, 48 h, Table 6, MTS, 2 days drug incubation, 50% reduction vs time zero, read-out: Hep3B LC50.
With `Cc1ccccc1-n1ncc2c(NC(=O)c3ccc([N+](=O)[O-])s3)nc(N3CCC[C@H]3CO)nc21` [Compound 6-1, (S)—N-(6-(2-(hydroxymethyl)pyrrolidin-1-yl)-1-(o-tolyl)-1H-pyrazolo[3,4-d]pyrimidin-4-yl)-5-nitrothiophene-2-carboxamide], the LC50 is over 3 µM.
On the same count and under the same terms, in the case of `Cc1ccccc1-n1ncc2c(NC(=O)c3ccc([N+](=O)[O-])s3)nc(-c3ccc(F)nc3)nc21` [Compound 6-2] it was over 3 µM; in that of `Cc1ccc(-n2ncc3c(NC(=O)c4ccc([N+](=O)[O-])s4)nc(N4CCC[C@H]4CO)nc32)cc1` [Compound 6-3, (S)—N-(6-(2-(hydroxymethyl)pyrrolidin-1-yl)-1-(p-tolyl)-1H-pyrazolo[3,4-d]pyrimidin-4-yl)-5-nitrothiophene-2-carboxamide], 0.87 µM.
The same measure, in the same setting: in the case of `COc1ccc(-c2nc(NC(=O)c3ccc([N+](=O)[O-])s3)c3cnn(-c4ccc(C)cc4)c3n2)cn1` [Compound 6-6, N-(6-(6-methoxypyridin-3-yl)-1-(p-tolyl)-1H-pyrazolo[3,4-d]pyrimidin-4-yl)-5-nitrothiophene-2-carboxamide] it was 0.4 µM.
Same read-out and setting: for `Cc1ccc(-n2ncc3c(NC(=O)c4ccc([N+](=O)[O-])s4)nc(-c4ccc(Cl)cc4)nc32)cc1` [Compound 6-7] the value was 0.29 µM.
Take `Cc1ccc(-n2ncc3c(NC(=O)c4ccc([N+](=O)[O-])s4)nc(-c4ccc(C(F)(F)F)cc4)nc32)cc1` [Compound 6-8, 5-nitro-N-(1-(p-tolyl)-6-(4-(trifluoromethyl)phenyl)-1H-pyrazolo[3,4-d]pyrimidin-4-yl)thiophene-2-carboxamide]: the LC50 was 0.35 µM.
For the molecule `Cc1ccc(-n2ncc3c(NC(=O)c4ccc([N+](=O)[O-])s4)nc(-c4ccc5c(c4)OCO5)nc32)cc1` [Compound 6-9], the LC50 was 0.4 µM.
Still for that read-out and setting: for `Cc1ccc(-n2ncc3c(NC(=O)c4ccc([N+](=O)[O-])s4)nc(-c4ccc5c(c4)OCCO5)nc32)cc1` [Compound 6-10, N-(6-(2,3-dihydrobenzo[b][1,4]dioxin-6-yl)-1-(p-tolyl)-1H-pyrazolo[3,4-d]pyrimidin-4-yl)-5-nitrothiophene-2-carboxamide] the value was 0.62 µM; for `COCCOc1ccc(-c2nc(NC(=O)c3ccc([N+](=O)[O-])s3)c3cnn(-c4ccc(C)cc4)c3n2)cn1` [Compound 6-12, N-(6-(6-(2-methoxyethoxy)pyridin-3-yl)-1-(p-tolyl)-1H-pyrazolo[3,4-d]pyrimidin-4-yl)-5-nitrothiophene-2-carboxamide], 0.26 µM.
Same read-out and setting: in the case of `CCOCCOc1ccc(-c2nc(NC(=O)c3ccc([N+](=O)[O-])s3)c3cnn(-c4ccc(C)cc4)c3n2)cn1` [Compound 6-13, N-(6-(6-(2-ethoxyethoxy)pyridin-3-yl)-1-(p-tolyl)-1H-pyrazolo[3,4-d]pyrimidin-4-yl)-5-nitrothiophene-2-carboxamide] it was 0.51 µM.
The same measure, in the same setting: for `CCOCCOCCOc1ccc(-c2nc(NC(=O)c3ccc([N+](=O)[O-])s3)c3cnn(-c4ccc(C)cc4)c3n2)cn1` [Compound 6-14] the value was 0.22 µM.
For `COc1ccc(-n2ncc3c(NC(=O)c4ccc([N+](=O)[O-])s4)nc(NC4CCCCC4)nc32)cc1` [Compound 6-15, N-(6-(cyclohexylamino)-1-(4-methoxyphenyl)-1H-pyrazolo[3,4-d]pyrimidin-4-yl)-5-nitrothiophene-2-carboxamide], the LC50 was over 1.25 µM.
Still for that read-out and setting: in the case of `COc1ccc(-n2ncc3c(NC(=O)c4ccc([N+](=O)[O-])s4)nc(OC4CCCCC4)nc32)cc1` [Compound 6-16, N-(6-(cyclohexyloxy)-1-(4-methoxyphenyl)-1H-pyrazolo[3,4-d]pyrimidin-4-yl)-5-nitrothiophene-2-carboxamide] it was 1.36 µM; in that of `COc1ccc(-n2ncc3c(NC(=O)c4ccc([N+](=O)[O-])s4)nc(-c4ccc(C)nc4)nc32)cc1` [Compound 6-17, N-(1-(4-methoxyphenyl)-6-(6-methylpyridin-3-yl)-1H-pyrazolo[3,4,d]pyrimidin-4-yl)-5-nitrothiophene-2-carboxamide], 0.19 µM.
Same read-out and setting: for `COc1ccc(-n2ncc3c(NC(=O)c4ccc([N+](=O)[O-])s4)nc(-c4ccc(Cl)cc4)nc32)cc1` [Compound 6-20, N-(6-(4-chlorophenyl)-1-(4-methoxyphenyl)-1H-pyrazolo[3,4-d]pyrimidin-4-yl)-5-nitrothiophene-2-carboxamide] the value was 0.32 µM; for `COc1ccc(-n2ncc3c(NC(=O)c4ccc([N+](=O)[O-])s4)nc(-c4ccc(Cl)nc4)nc32)cc1` [Compound 6-21, N-(6-(6-chloropyridin-3-yl)-1-(4-methoxyphenyl)-1H-pyrazolo[3,4,d]pyrimidin-4-yl)-5-nitrothiophene-2-carboxamide], 0.12 µM; for `COc1ccc(-n2ncc3c(NC(=O)c4ccc([N+](=O)[O-])s4)nc(-c4ccc(Cl)cc4F)nc32)cc1` [Compound 6-22, N-(6-(4-chloro-2-fluorophenyl)-1-(4-methoxyphenyl)-1H-pyrazolo[3,4-d]pyrimidin-4-yl)-5-nitrothiophene-2-carboxamide], 0.38 µM.
Same read-out and setting: in the case of `COc1ccc(-n2ncc3c(NC(=O)c4ccc([N+](=O)[O-])s4)nc(-c4ccc(F)c(F)c4)nc32)cc1` [Compound 6-23, N-(6-(3,4-difluorophenyl)-1-(4-methoxyphenyl)-1H-pyrazolo[3,4-d]pyrimidin-4-yl)-5-nitrothiophene-2-carboxamide] it was 0.17 µM.
On to `COc1ccc(-n2ncc3c(NC(=O)c4ccc([N+](=O)[O-])s4)nc(-c4ccc5c(c4)OCO5)nc32)cc1` [Compound 6-24, N-(6-(benzo[d][1,3]dioxol-5-yl)-1-(4-methoxyphenyl)-1H-pyrazolo[3,4-d]pyrimidin-4-yl)-5-nitrothiophene-2-carboxamide], for which the LC50 amounted to 0.19 µM.
On the same count and under the same terms, for `CCCOc1ccc(-c2nc(NC(=O)c3ccc([N+](=O)[O-])s3)c3cnn(-c4ccc(OC)cc4)c3n2)cn1` [Compound 6-25] the value was 0.21 µM; for `COCCOc1ccc(-c2nc(NC(=O)c3ccc([N+](=O)[O-])s3)c3cnn(-c4ccc(OC)cc4)c3n2)cn1` [Compound 6-26, N-(6-(6-(2-methoxyethoxy)pyridin-3-yl)-1-(4-methoxyphenyl)-1H-pyrazolo[3,4,d]pyrimidin-4-yl)-5-nitrothiophene-2-carboxamide], 0.22 µM.
Still for that read-out and setting: for `CCOCCOc1ccc(-c2nc(NC(=O)c3ccc([N+](=O)[O-])s3)c3cnn(-c4ccc(OC)cc4)c3n2)cn1` [Compound 6-27, N-(6-(6-(2-ethoxyethoxy)pyridin-3-yl)-1-(4-methoxyphenyl)-1H-pyrazolo[3,4-d]pyrimidin-4-yl)-5-nitrothiophene-2-carboxamide] the value was 0.21 µM.
The same measure, in the same setting: for `COc1ccc(-n2ncc3c(NC(=O)c4ccc([N+](=O)[O-])s4)nc(C4=CCC(C)(C)CC4)nc32)cc1` [Compound 6-29, N-(6-(4,4-dimethylcyclohex-1-en-1-yl)-1-(4-methoxyphenyl)-1H-pyrazolo[3,4-d]pyrimidin-4-yl)-5-nitrothiophene-2-carboxamide] the value was 0.82 µM; for `COc1ccc(-n2ncc3c(NC(=O)c4ccc([N+](=O)[O-])s4)nc(C4CCC(C)(C)CC4)nc32)cc1` [Compound 6-30, N-(6-(4,4-dimethylcyclohexyl)-1-(4-methoxyphenyl)-1H-pyrazolo[3,4-d]pyrimidin-4-yl)-5-nitrothiophene-2-carboxamide], 1.32 µM.
